Measured values as given in PubChem BioAssay AID248 (DTP/NCI, 2004).
Where “and” joins values, the source holds several entries; their conditions need not be identical. Identical values can stand only once. Inconclusive results and toxic doses are left out.

System: L1210 leukemia ip in BDF1 mice, survival T/C
Assay: NCI In Vivo Anticancer Drug Screen. Data for tumor model L1210 Leukemia (intraperitoneal) in B6D2F1 (BDF1) mice
Conditions: higher = longer survival
Summary of the method: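 Antitumor effect is assessed in tumor-bearing animals. Survival in the compound arm is compared with a vehicle-dosed control arm and expressed as their quotient.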

[1] = endpoint: mean survival time, dose: 50.0 mg/kg/injection, schedule: Q01DX009 (ip), vehicle: saline
[2] = endpoint: mean survival time, dose: 100.0 mg/kg/injection, schedule: Q01DX009 (ip), vehicle: saline
[3] = endpoint: mean survival time, dose: 100.0 mg/kg/injection, schedule: Q04DX003 (ip), vehicle: saline
[4] = endpoint: mean survival time, dose: 200.0 mg/kg/injection, schedule: Q04DX003 (ip), vehicle: saline
[5] = endpoint: mean survival time, dose: 400.0 mg/kg/injection, schedule: Q01DX009 (ip), vehicle: saline
[6] = endpoint: mean survival time, dose: 400.0 mg/kg/injection, schedule: Q04DX003 (ip), vehicle: saline
[7] = endpoint: mean survival time, dose: 100.0 mg/kg/injection, schedule: Q01DX009 (ip), vehicle: Klucel (hydroxypropylcellulose) (HPC)
[8] = endpoint: mean survival time, dose: 200.0 mg/kg/injection, schedule: Q01DX009 (ip), vehicle: Klucel (hydroxypropylcellulose) (HPC)
[9] = endpoint: mean survival time, dose: 400.0 mg/kg/injection, schedule: Q01DX009 (ip), vehicle: Klucel (hydroxypropylcellulose) (HPC)
[10] = endpoint: mean survival time, dose: 100.0 mg/kg/injection, schedule: Q04DX003 (ip), vehicle: saline with Tween-80
[11] = endpoint: mean survival time, dose: 200.0 mg/kg/injection, schedule: Q04DX003 (ip), vehicle: saline with Tween-80
[12] = endpoint: mean survival time, dose: 400.0 mg/kg/injection, schedule: Q04DX003 (ip), vehicle: saline with Tween-80
[13] = endpoint: mean survival time, dose: 100.0 mg/kg/injection, schedule: Q01DX001 (ip), vehicle: carboxymethylcellulose (CMC)
[14] = endpoint: mean survival time, dose: 134.0 mg/kg/injection, schedule: Q01DX001 (ip), vehicle: carboxymethylcellulose (CMC)
[15] = endpoint: mean survival time, dose: 400.0 mg/kg/injection, schedule: Q01DX001 (ip), vehicle: carboxymethylcellulose (CMC)

COC1OC(CO)C(O)C(NC(=O)N(C)N=O)C1O (stereo not drawn)
T/C (endpoint: mean survival time, dose: 12.5 mg/kg/injection, schedule: Q01DX009 (ip), vehicle: saline): 112 % of control | T/C (endpoint: mean survival time, dose: 25.0 mg/kg/injection, schedule: Q04DX003 (ip), vehicle: saline): 106 % of control | T/C (endpoint: mean survival time, dose: 44.0 mg/kg/injection, schedule: Q01DX009 (ip), vehicle: saline): 124 % of control | T/C [1]: 181 % of control | T/C (endpoint: mean survival time, dose: 50.0 mg/kg/injection, schedule: Q04DX003 (ip), vehicle: saline): 105 % of control | T/C (endpoint: mean survival time, dose: 66.0 mg/kg/injection, schedule: Q04DX003 (ip), vehicle: saline): 100 % of control | T/C [2]: 103 % of control and 218 % of control | T/C (endpoint: mean survival time, dose: 100.0 mg/kg/injection, schedule: Q04DX003 (ip), vehicle: Klucel (hydroxypropylcellulose) (HPC)): 119 % of control | T/C [3]: 158 % of control | T/C (endpoint: mean survival time, dose: 150.0 mg/kg/injection, schedule: Q04DX003 (ip), vehicle: saline): 105 % of control | T/C [4]: 166 % of control | T/C [5]: 100 % of control | T/C (endpoint: mean survival time, dose: 400.0 mg/kg/injection, schedule: Q04DX003 (ip), vehicle: Klucel (hydroxypropylcellulose) (HPC)): 171 % of control | T/C [6]: 100 % of control and 214 % of control

CC(C)(C)OC(=O)C(N)CC(N)=O (stereo not drawn)
T/C [7]: 106 % of control | T/C (endpoint: mean survival time, dose: 100.0 mg/kg/injection, schedule: Q04DX002 (ip), vehicle: Klucel (hydroxypropylcellulose) (HPC)): 103 % of control | T/C [8]: 106 % of control | T/C (endpoint: mean survival time, dose: 200.0 mg/kg/injection, schedule: Q04DX002 (ip), vehicle: Klucel (hydroxypropylcellulose) (HPC)): 88 % of control | T/C [9]: 98 % of control | T/C (endpoint: mean survival time, dose: 400.0 mg/kg/injection, schedule: Q04DX002 (ip), vehicle: Klucel (hydroxypropylcellulose) (HPC)): 98 % of control

Cc1cc([N+](=O)[O-])ccc1NC(=O)Nc1ccccc1F
T/C (endpoint: mean survival time, dose: 100.0 mg/kg/injection, schedule: Q01DX009 (ip), vehicle: saline with Tween-80): 102 % of control | T/C (endpoint: mean survival time, dose: 200.0 mg/kg/injection, schedule: Q01DX009 (ip), vehicle: saline with Tween-80): 86 % of control | T/C (endpoint: mean survival time, dose: 400.0 mg/kg/injection, schedule: Q01DX009 (ip), vehicle: saline with Tween-80): 96 % of control

CC(NC(=O)C(F)(F)F)C(=O)O (stereo not drawn)
T/C [2]: 92 % of control | T/C [3]: 103 % of control | T/C (endpoint: mean survival time, dose: 200.0 mg/kg/injection, schedule: Q01DX009 (ip), vehicle: saline): 95 % of control | T/C [4]: 93 % of control | T/C [5]: 113 % of control | T/C [6]: 97 % of control

CC1C=C(Br)C(=O)c2ccccc2N1S(C)(=O)=O (stereo not drawn)
T/C (endpoint: mean survival time, dose: 6.0 mg/kg/injection, schedule: Q04DX003 (ip), vehicle: Klucel (hydroxypropylcellulose) (HPC)): 98 % of control | T/C (endpoint: mean survival time, dose: 12.0 mg/kg/injection, schedule: Q04DX003 (ip), vehicle: Klucel (hydroxypropylcellulose) (HPC)): 92 % of control | T/C (endpoint: mean survival time, dose: 12.5 mg/kg/injection, schedule: Q01DX009 (ip), vehicle: Klucel (hydroxypropylcellulose) (HPC)): 102 % of control | T/C (endpoint: mean survival time, dose: 25.0 mg/kg/injection, schedule: Q01DX009 (ip), vehicle: Klucel (hydroxypropylcellulose) (HPC)): 94 % of control | T/C (endpoint: mean survival time, dose: 25.0 mg/kg/injection, schedule: Q04DX003 (ip), vehicle: Klucel (hydroxypropylcellulose) (HPC)): 93 % of control and 96 % of control

C=C1CC(CCCCC2CC(=C)C(=O)O2)OC1=O (stereo not drawn)
T/C (endpoint: mean survival time, dose: 100.0 mg/kg/injection, schedule: Q04DX002 (ip), vehicle: saline): 108 % of control | T/C (endpoint: mean survival time, dose: 200.0 mg/kg/injection, schedule: Q04DX002 (ip), vehicle: saline): 101 % of control | T/C (endpoint: mean survival time, dose: 400.0 mg/kg/injection, schedule: Q04DX002 (ip), vehicle: saline): 108 % of control

O=C(Nc1cccc(Cl)c1Cl)Oc1ccc(OCc2ccccc2)cc1
T/C [7]: 87 % of control | T/C [9]: 95 % of control

O=S(=O)(c1ccc(Br)cc1)c1ccc(Br)cc1
T/C [10]: 98 % of control | T/C [11]: 98 % of control | T/C [12]: 104 % of control

NC(=O)SCC(=O)Nc1ccc2ncccc2c1
T/C (endpoint: mean survival time, dose: 50.0 mg/kg/injection, schedule: Q01DX001 (ip), vehicle: carboxymethylcellulose (CMC)): 97 % of control | T/C (endpoint: mean survival time, dose: 88.0 mg/kg/injection, schedule: Q01DX001 (ip), vehicle: carboxymethylcellulose (CMC)): 95 % of control and 112 % of control | T/C [13]: 94 % of control | T/C (endpoint: mean survival time, dose: 100.0 mg/kg/injection, schedule: Q01DX009 (ip), vehicle: saline sonified): 98 % of control | T/C [3]: 93 % of control | T/C [14]: 95 % of control and 105 % of control | T/C (endpoint: mean survival time, dose: 200.0 mg/kg/injection, schedule: Q01DX009 (ip), vehicle: saline sonified): 90 % of control | T/C [4]: 109 % of control | T/C (endpoint: mean survival time, dose: 300.0 mg/kg/injection, schedule: Q01DX001 (ip), vehicle: carboxymethylcellulose (CMC)): 100 % of control and 87 % of control | T/C [15]: 100 % of control | T/C (endpoint: mean survival time, dose: 400.0 mg/kg/injection, schedule: Q01DX009 (ip), vehicle: saline sonified): 101 % of control | T/C [6]: 96 % of control

CC(C)CN(C)/N=N/c1nc[nH]c1C(N)=O
T/C (endpoint: mean survival time, dose: 33.0 mg/kg/injection, schedule: Q01DX009 (ip), vehicle: carboxymethylcellulose (CMC)): 114 % of control | T/C (endpoint: mean survival time, dose: 37.0 mg/kg/injection, schedule: Q01DX Z (ip), vehicle: carboxymethylcellulose (CMC)): 170 % of control | T/C (endpoint: mean survival time, dose: 50.0 mg/kg/injection, schedule: Q01DX Z (ip), vehicle: carboxymethylcellulose (CMC)): 156 % of control | T/C (endpoint: mean survival time, dose: 75.0 mg/kg/injection, schedule: Q01DX Z (ip), vehicle: carboxymethylcellulose (CMC)): 167 % of control | T/C (endpoint: mean survival time, dose: 80.0 mg/kg/injection, schedule: Q01DX015 (ip), vehicle: carboxymethylcellulose (CMC)): 109 % of control | T/C [13]: 116 % of control | T/C (endpoint: mean survival time, dose: 120.0 mg/kg/injection, schedule: Q01DX009 (ip), vehicle: carboxymethylcellulose (CMC)): 86 % of control | T/C [14]: 106 % of control | T/C (endpoint: mean survival time, dose: 134.0 mg/kg/injection, schedule: Q01DX015 (ip), vehicle: carboxymethylcellulose (CMC)): 109 % of control | T/C (endpoint: mean survival time, dose: 178.0 mg/kg/injection, schedule: Q01DX001 (ip), vehicle: carboxymethylcellulose (CMC)): 106 % of control | T/C (endpoint: mean survival time, dose: 200.0 mg/kg/injection, schedule: Q01DX001 (ip), vehicle: carboxymethylcellulose (CMC)): 122 % of control | T/C (endpoint: mean survival time, dose: 267.0 mg/kg/injection, schedule: Q01DX001 (ip), vehicle: carboxymethylcellulose (CMC)): 110 % of control | T/C [15]: 151 % of control | T/C (endpoint: median survival time, dose: 12.5 mg/kg/injection, schedule: Q01DX009 (ip), vehicle: steriod suspending solution): 122 % of control | T/C (endpoint: median survival time, dose: 25.0 mg/kg/injection, schedule: Q01DX009 (ip), vehicle: steriod suspending solution): 111 % of control | T/C (endpoint: median survival time, dose: 50.0 mg/kg/injection, schedule: Q01DX011 (ip), vehicle: steriod suspending solution): 175 % of control | T/C (endpoint: median survival time, dose: 100.0 mg/kg/injection, schedule: Q01DX009 (ip), vehicle: steriod suspending solution): 155 % of control | T/C (endpoint: median survival time, dose: 100.0 mg/kg/injection, schedule: Q01DX011 (ip), vehicle: steriod suspending solution): 168 % of control

O=c1[nH]c2ccc([N+](=O)[O-])cc2c2nc3ccccc3n12
T/C (endpoint: mean survival time, dose: 50.0 mg/kg/injection, schedule: Q01DX009 (ip), vehicle: Klucel (hydroxypropylcellulose) (HPC)): 95 % of control | T/C [7]: 101 % of control | T/C [8]: 95 % of control

Nc1ccc(Cc2ccc(N)c(Br)c2)cc1Br
T/C [1]: 102 % of control | T/C (endpoint: mean survival time, dose: 100.0 mg/kg/injection, schedule: Q01DX001 (ip), vehicle: saline): 93 % of control | T/C [2]: 98 % of control | T/C (endpoint: mean survival time, dose: 200.0 mg/kg/injection, schedule: Q01DX001 (ip), vehicle: saline): 98 % of control

O=C(O)C1C2CC3C(C2)C31.[Ag] (stereo not drawn)
T/C (endpoint: mean survival time, dose: 20.0 mg/kg/injection, schedule: Q01DX009 (ip), vehicle: Klucel (hydroxypropylcellulose) (HPC)): 91 % of control | T/C (endpoint: mean survival time, dose: 20.0 mg/kg/injection, schedule: Q04DX003 (ip), vehicle: Klucel (hydroxypropylcellulose) (HPC)): 93 % of control | T/C (endpoint: mean survival time, dose: 40.0 mg/kg/injection, schedule: Q04DX003 (ip), vehicle: Klucel (hydroxypropylcellulose) (HPC)): 89 % of control

[C-]#[N+]C(C)(c1ccccc1)c1ccccc1
T/C (endpoint: mean survival time, dose: 12.5 mg/kg/injection, schedule: Q01DX001 (ip), vehicle: acetone): 92 % of control | T/C (endpoint: mean survival time, dose: 25.0 mg/kg/injection, schedule: Q01DX001 (ip), vehicle: acetone): 95 % of control | T/C (endpoint: mean survival time, dose: 50.0 mg/kg/injection, schedule: Q01DX001 (ip), vehicle: acetone): 110 % of control

CCCC(O)C1CCCCC1O (stereo not drawn)
T/C [10]: 113 % of control | T/C [11]: 100 % of control | T/C [12]: 103 % of control
